Results reported in US6525001B1, “Substituted pyrimidine and pyridine herbicides” (Mid-American Commercialization Corporation, priority 1997, dated 2003).

Tests used:
Format in all cases: in vivo
[1] = test system: tall mallow (Malva sylvestris); assay: Test E pre-/postemergence/post directed; design: key: 0 is no effect; 100 is complete control; settings: PREEMERGENCE
Excerpt: (§1) Seeds, tubers, or plant parts of alexandergrass (Brachiaria plantaginea), annual bluegrass (Poa annua), arrowleaf sida (Sida rhombifolia), barnyardgrass (Echinochloa crus-galli), bermudagrass (Cynodon dactylon), citrus (Citrus sinensis), common chickweed (Stellaria media), common purslane (Portulaca oleracea), common ragweed (Ambrosia elatior), common groundsel (Senecio vulgaris), dallisgrass (Paspalum dilatatum), goosegrass (Eleusine indica), green foxtail (Setaria viridis), guineagrass (Panicum maximum), itchgrass (Rottboellia exaltata), johnson grass (Sorghum halepense), kochia (Kochia scoparia), large crabgrass (Digitaria sanguinalis), leafy spurge (Euphorbia esula), pitted morningglory (Ipomoea lacunosa), purple nutsedge (Cyperus rotundus), quackgrass (Agropyron repens), Russian thistle (Salsola kali), sandbur (Cenchrus echinatus), sourgrass (Trichachne insularis), Spanishneedles (Bidens bipinnata), sugarcane (Saccharum officinarum), surinam grass (Brachiaria decumbens) and tall mallow (Malva sylvestris) were planted into greenhouse pots of flats containing greenhouse planting medium. Plant species were grown grown in separate pots or individual compartments. Preemergence applications were made within one day of planting the seed or plant part. Postemergence applications were applied when the plants were in the two to four leaf stage (three to twenty cm).
(§2) Test chemicals were formulated in a non-phytotoxic solvent mixture which included a surfactant and applied preemergence to the soil surface, postemergence to the plants or as a post directed spray to plants and soil at the base of the target species. Untreated control plants and treated plants were placed in the greenhouse and visually evaluated for injury 13 to 21 days after herbicide application. Plant response ratings, summarized in Table E, are based on a 0 to 100 scale where 0 is no injury and 100 is complete control. A dash (−) response means no test result.

[2] = test system: guineagrass (Panicum maximum); assay: Test E pre-/postemergence/post directed; design: key: 0 is no effect; 100 is complete control
Excerpt: as §1, §2

[3] = test system: common purslane (Portulaca oleracea); assay: Test E pre-/postemergence/post directed; design: key: 0 is no effect; 100 is complete control
Excerpt: as §1, §2

[4] = test system: dallisgrass (Paspalum dilatatum); assay: Test E pre-/postemergence/post directed; design: key: 0 is no effect; 100 is complete control
Excerpt: as §1, §2

[5] = test system: johnsongrass (Sorghum halepense); assay: Test C; settings: PREEMERGENCE
[6] = test system: redroot pigweed (Amaranthus retroflexus); assay: Test C; design: key: 0 was no effect; 100 was complete control; settings: PREEMERGENCE
[7] = test system: cocklebur (Xanthium strumarium); assay: Test B pre-/postemergence; design: key: 0 is no effect; 10 is complete control
Method in brief: (§3)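 Scored visually 0 (none) to 10 (complete control) against untreated plants after twelve to sixteen greenhouse days. Test chemicals, formulated in surfactant-containing non-phytotoxic solvent, applied to soil after planting and, separately, onto 1- to 4-leaf (2–18 cm) plants.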

[8] = test system: momingglory (Ipomoea hederacea); assay: Test B pre-/postemergence; design: key: 0 is no effect; 10 is complete control
Method in brief: as §3

[9] = test system: pigweed (Amaranthus retroflexus); assay: Test B pre-/postemergence; design: key: 0 is no effect; 10 is complete control
Method in brief: as §3

[10] = test system: blackgrass (Alopecurus myosuroides); assay: Test B pre-/postemergence; design: key: 0 is no effect; 10 is complete control
Method in brief: as §3

[11] = test system: broadleaf signalgrass (Brachiaria decumbens); assay: Test B pre-/postemergence; design: key: 0 is no effect; 10 is complete control; settings: for B. signalgrass plant response rating: Preemergence
Method in brief: as §3

[12] = test system: arrowleaf sida (Sida rhombifolia); assay: Test C; design: key: 0 was no effect; 100 was complete control; settings: PREEMERGENCE
[13] = Rate 250 g/ha, Postemergence (so in the source)

## CCc1cnc(-n2ccc(C(F)(F)F)n2)nc1Cc1cccc(C(F)(F)F)c1 [Compound 46]
[1]; Rate 32 g/ha
  Plant response rating, Tall Mallow: 100
[1]; Rate 64 g/ha
  Plant response rating, Tall Mallow: 100
[1]; Rate 125 g/ha
  Plant response rating, Tall Mallow: 100
[1]; Rate 250 g/ha
  Plant response rating, Tall Mallow: 100
[2]; PREEMERGENCE, Rate 32 g/ha
  Plant response rating, Guineagrass: 60
[2]; PREEMERGENCE, Rate 64 g/ha
  Plant response rating, Guineagrass: 85
[2]; PREEMERGENCE, Rate 125 g/ha
  Plant response rating, Guineagrass: 100
[2]; PREEMERGENCE, Rate 250 g/ha
  Plant response rating, Guineagrass: 98
[3]; PREEMERGENCE, Rate 32 g/ha
  Plant response rating, Com. purslane: 100
[3]; PREEMERGENCE, Rate 64 g/ha
  Plant response rating, Com. purslane: 100
[3]; PREEMERGENCE, Rate 125 g/ha
  Plant response rating, Com. purslane: 100
[3]; PREEMERGENCE, Rate 250 g/ha
  Plant response rating, Com. purslane: 100
[4]; PREEMERGENCE, Rate 32 g/ha
  Plant response rating, Dallisgrass: 65
[4]; PREEMERGENCE, Rate 64 g/ha
  Plant response rating, Dallisgrass: 98
[4]; PREEMERGENCE, Rate 125 g/ha
  Plant response rating, Dallisgrass: 100
[4]; PREEMERGENCE, Rate 250 g/ha
  Plant response rating, Dallisgrass: 100
[5]; Rate 35 g/ha
  Plant response rating, Johnsongrass: 5
[5]; Rate 70 g/ha
  Plant response rating, Johnsongrass: 45
[5]; Rate 140 g/ha
  Plant response rating, Johnsongrass: 50
[6]; Rate 35 g/ha
  Plant response rating, Redroot pigweed: 70
[6]; Rate 70 g/ha
  Plant response rating, Redroot pigweed: 100
[6]; Rate 140 g/ha
  Plant response rating, Redroot pigweed: 100
[7]; Rate 62 g/ha, Postemergence
  Plant response rating, Cocklebur: 8
[7]; Rate 62 g/ha, Preemergence
  Cocklebur plant response rating: 10
[7]; Rate 125 g/ha, Postemergence
  Plant response rating, Cocklebur: 9
[7]; Rate 250 g/ha, Postemergence
  Plant response rating, Cocklebur: 9
[8]; Rate 62 g/ha, Postemergence
  Plant response rating, Morningglory: 9
[8]; Rate 62 g/ha, Preemergence
  Morningglory plant response rating: 10
[8]; Rate 125 g/ha, Postemergence
  Morningglory plant response rating: 10
[8]; Rate 125 g/ha, Preemergence
  Morningglory plant response rating: 10
[8]; Rate 250 g/ha, Postemergence
  Plant response rating, Morningglory: 10
[8]; [13]
  Plant response rating, Morningglory: 10
[9]; Rate 62 g/ha, Postemergence
  Plant response rating, Redroot pigweed: 9
[9]; Rate 62 g/ha, Preemergence
  Redroot pigweed plant response rating: 10
[9]; Rate 125 g/ha, Postemergence
  Redroot pigweed plant response rating: 9
[9]; Rate 125 g/ha, Preemergence
  Redroot pigweed plant response rating: 10
[9]; Rate 250 g/ha, Postemergence
  Plant response rating, Redroot pigweed: 10
[9]; [13]
  Plant response rating, Redroot pigweed: 10
[10]; Rate 62 g/ha, Postemergence
  Plant response rating, Blackgrass: 4
[10]; Rate 62 g/ha, Preemergence
  Blackgrass plant response rating: 8
[10]; Rate 125 g/ha, Postemergence
  Plant response rating, Blackgrass: 5
[10]; Rate 125 g/ha, Preemergence
  Blackgrass plant response rating: 8
[10]; Rate 250 g/ha, Postemergence
  Plant response rating, Blackgrass: 6
[10]; [13]
  Plant response rating, Blackgrass: 10
[11]; Rate 62 g/ha, Postemergence
  Plant response rating, B. signalgrass: 3
[11]; Rate 62 g/ha
  B. signalgrass plant response rating: 9
[11]; Rate 125 g/ha, Postemergence
  Plant response rating, B. signalgrass: 4
[11]; Rate 125 g/ha
  B. signalgrass plant response rating: 9
[11]; Rate 250 g/ha, Postemergence
  Plant response rating, B. signalgrass: 5
[11]; Rate 250 g/ha, Postemergence as printed in head r139 (second section for compounds 26-50)
  Plant response rating, B. signalgrass: 9
[12]; Rate 35 g/ha
  Plant response rating, Arrowleaf sida: 100
[12]; Rate 70 g/ha
  Plant response rating, Arrowleaf sida: 90
[12]; Rate 140 g/ha
  Plant response rating, Arrowleaf sida: 100

## Cc1cnc(-n2ccc(C(F)(F)F)n2)nc1Cc1cccc(C(F)(F)F)c1 [Example 2, 5-methyl-4-[[3-(trifluoromethyl)phenyl]methyl]-2-[3-(trifluoromethyl)-1H-pyrazol-1-yl]pyrimidine]
[1]; Rate 32 g/ha
  Plant response rating, Tall Mallow: 98
[1]; Rate 64 g/ha
  Plant response rating, Tall Mallow: 100
[1]; Rate 125 g/ha
  Plant response rating, Tall Mallow: 100
[1]; Rate 250 g/ha
  Plant response rating, Tall Mallow: 100
[1]; Rate 500 g/ha
  Plant response rating, Tall Mallow: 100
[2]; POSTEMERGENCE, Rate 32 g/ha
  Plant response rating, Guineagrass: 5
[2]; POSTEMERGENCE, Rate 125 g/ha
  Plant response rating, Guineagrass: 50
[2]; POSTEMERGENCE, Rate 250 g/ha
  Plant response rating, Guineagrass: 50
[2]; POSTEMERGENCE, Rate 500 g/ha
  Plant response rating, Guineagrass: 90
[2]; PREEMERGENCE, Rate 32 g/ha
  Plant response rating, Guineagrass: 50
[2]; PREEMERGENCE, Rate 64 g/ha
  Plant response rating, Guineagrass: 50
[2]; PREEMERGENCE, Rate 125 g/ha
  Plant response rating, Guineagrass: 100
[2]; PREEMERGENCE, Rate 250 g/ha
  Plant response rating, Guineagrass: 100
[3]; POSTEMERGENCE, Rate 32 g/ha
  Plant response rating, Com. purslane: 65
[3]; POSTEMERGENCE, Rate 64 g/ha
  Plant response rating, Com. purslane: 65
[3]; POSTEMERGENCE, Rate 125 g/ha
  Plant response rating, Com. purslane: 65
[3]; POSTEMERGENCE, Rate 250 g/ha
  Plant response rating, Com. purslane: 70
[3]; POSTEMERGENCE, Rate 500 g/ha
  Plant response rating, Com. purslane: 70
[3]; PREEMERGENCE, Rate 32 g/ha
  Plant response rating, Com. purslane: 100
[3]; PREEMERGENCE, Rate 64 g/ha
  Plant response rating, Com. purslane: 100
[3]; PREEMERGENCE, Rate 125 g/ha
  Plant response rating, Com. purslane: 100
[3]; PREEMERGENCE, Rate 250 g/ha
  Plant response rating, Com. purslane: 100
[3]; PREEMERGENCE, Rate 500 g/ha
  Plant response rating, Com. purslane: 100
[4]; POSTEMERGENCE, Rate 32 g/ha
  Plant response rating, Dallisgrass: 10
[4]; POSTEMERGENCE, Rate 64 g/ha
  Plant response rating, Dallisgrass: 40
[4]; POSTEMERGENCE, Rate 125 g/ha
  Plant response rating, Dallisgrass: 70
[4]; POSTEMERGENCE, Rate 250 g/ha
  Plant response rating, Dallisgrass: 90
[4]; POSTEMERGENCE, Rate 500 g/ha
  Plant response rating, Dallisgrass: 95
[4]; PREEMERGENCE, Rate 32 g/ha
  Plant response rating, Dallisgrass: 90
[4]; PREEMERGENCE, Rate 64 g/ha
  Plant response rating, Dallisgrass: 100
[4]; PREEMERGENCE, Rate 125 g/ha
  Plant response rating, Dallisgrass: 100
[4]; PREEMERGENCE, Rate 250 g/ha
  Plant response rating, Dallisgrass: 100
[4]; PREEMERGENCE, Rate 500 g/ha
  Plant response rating, Dallisgrass: 100
[5]; Rate 35 g/ha
  Plant response rating, Johnsongrass: 5
[5]; Rate 70 g/ha
  Plant response rating, Johnsongrass: 5
[5]; Rate 140 g/ha
  Plant response rating, Johnsongrass: 60
[6]; Rate 35 g/ha
  Plant response rating, Redroot pigweed: 5
[6]; Rate 70 g/ha
  Plant response rating, Redroot pigweed: 5
[6]; Rate 140 g/ha
  Plant response rating, Redroot pigweed: 100
[7]; Rate 62 g/ha, Postemergence
  Plant response rating, Cocklebur: 8
[7]; Rate 62 g/ha, Preemergence
  Cocklebur plant response rating: 0
[7]; Rate 125 g/ha, Postemergence
  Plant response rating, Cocklebur: 8
[7]; Rate 125 g/ha, Preemergence
  Cocklebur plant response rating: 1
[7]; Rate 250 g/ha, Postemergence
  Plant response rating, Cocklebur: 8
[7]; Rate 250 g/ha, Preemergence
  Plant response rating, Cocklebur: 1
[7]; Rate 500 g/ha, Postemergence
  Plant response rating, Cocklebur: 9
[7]; Rate 500 g/ha, Preemergence
  Plant response rating, Cocklebur: 3
[8]; Rate 62 g/ha, Postemergence
  Plant response rating, Morningglory: 8
[8]; Rate 62 g/ha, Preemergence
  Morningglory plant response rating: 7
[8]; Rate 125 g/ha, Postemergence
  Plant response rating, Morningglory: 9
[8]; Rate 125 g/ha, Preemergence
  Morningglory plant response rating: 9
[8]; Rate 250 g/ha, Postemergence
  Plant response rating, Morningglory: 9
[8]; Rate 250 g/ha, Preemergence
  Plant response rating, Morningglory: 10
[8]; Rate 500 g/ha, Postemergence
  Plant response rating, Morningglory: 9
[8]; Rate 500 g/ha, Preemergence
  Plant response rating, Morningglory: 10
[9]; Rate 62 g/ha, Postemergence
  Plant response rating, Redroot pigweed: 7
[9]; Rate 62 g/ha, Preemergence
  Redroot pigweed plant response rating: 10
[9]; Rate 125 g/ha, Postemergence
  Plant response rating, Redroot pigweed: 9
[9]; Rate 125 g/ha, Preemergence
  Redroot pigweed plant response rating: 10
[9]; Rate 250 g/ha, Postemergence
  Plant response rating, Redroot pigweed: 9
[9]; Rate 250 g/ha, Preemergence
  Plant response rating, Redroot pigweed: 10
[9]; Rate 500 g/ha, Postemergence
  Plant response rating, Redroot pigweed: 9
[9]; Rate 500 g/ha, Preemergence
  Plant response rating, Redroot pigweed: 10
[10]; Rate 62 g/ha, Postemergence
  Plant response rating, Blackgrass: 3
[10]; Rate 62 g/ha, Preemergence
  Blackgrass plant response rating: 3
[10]; Rate 125 g/ha, Postemergence
  Plant response rating, Blackgrass: 6
[10]; Rate 125 g/ha, Preemergence
  Blackgrass plant response rating: 7
[10]; Rate 250 g/ha, Postemergence
  Plant response rating, Blackgrass: 7
[10]; Rate 250 g/ha, Preemergence
  Plant response rating, Blackgrass: 10
[10]; Rate 500 g/ha, Postemergence
  Plant response rating, Blackgrass: 9
[10]; Rate 500 g/ha, Preemergence
  Plant response rating, Blackgrass: 10
[12]; Rate 35 g/ha
  Plant response rating, Arrowleaf sida: 10
[12]; Rate 70 g/ha
  Plant response rating, Arrowleaf sida: 20
[12]; Rate 140 g/ha
  Plant response rating, Arrowleaf sida: 100
